In a melting point compilation (Tetko et al.; mined from patent text by program, amines drawn as free bases though some values may be those of a salt):

Structure (SMILES)	melting point [°C]
COc1cc(-c2ccccc2)cc(-c2ccccc2)c1	93 to 94
CC(C)(O)Cn1c(COCc2ccccc2)nc2c(N)nc3ccccc3c21	196 to 198
CCN(C(=O)NC)c1nnc(C(C)(C)C)s1	112
COc1c(F)cc(CCC(=O)O)cc1F	72 to 73
C#CCOc1cc(Cl)ccc1-n1c(=O)cc(C(F)(F)F)n(C)c1=O	147 to 148
CN(O)CCCCc1ccc2c(c1)C(=O)c1sccc1CO2	107 to 108
O=C1OC(O)c2cccc(Cl)c21 (configuration not stated)	140 to 145
CCOC(CC)=NS(=O)(=O)c1nc(-c2ccccc2)ns1	98 to 100
CCOC(=O)c1c(-c2cccc(C)c2)oc(Cl)c(Cl)c1=O	113
Cc1nn(-c2c(Cl)cc(C(F)(F)F)cc2Cl)c(N)c1I	116 to 118
O=C(O)CNC(=O)CBr	90 to 91
OCC1(c2ccccc2)CCCC1	41 to 44
O=c1c2cc(Br)ccc2nc(CSc2ncnc3[nH]cnc23)n1-c1ccccc1Cl	212 to 242
CN(C)C(=O)C(C#N)=C(O)c1ccc(C(F)(F)F)cc1[N+](=O)[O-]	104 to 106
CCOC(=O)C1=C(C)N(C(C)=O)C(c2csc(C)n2)=NC1c1cccc(OC)c1 (configuration not stated)	114 to 116
COc1cc2c(Nc3cccc(N(C)C)c3)c(C#N)cnc2c(OC)c1OC	142 to 144
Cc1cccc(-n2cc(-c3ccc4c(c3)N(C(=O)CN3CCN(C)CC3)CCO4)nn2)n1	132
Nc1ccc(-c2noc(-c3cnn4c(C(F)F)cc(-c5ccc(C(F)(F)F)c(F)c5)nc34)n2)cn1	242
O=C(CBr)c1ccc(Cl)c(Cl)c1Cl	44 to 46
CC(C)(C)OC(=O)N1CCN(c2cccc3ccc(-n4nnc5ncccc54)cc23)CC1	173 to 175
CCCc1cc(F)c2occ(C)c2c1O	53 to 54
CCc1cccc(C)c1CNc1cc(C(=O)N(C)C)nc2c(C)c(C)[nH]c12	260 to 262
CC(C)(C)OC(=O)CCc1ccc(C[C@H](NC(=O)OC(C)(C)C)C(=O)O)cc1	88.5 to 90

Second part, the molecule after the results:

melting point [°C]	Structure (SMILES)
93 to 96	CS(=O)(=O)c1ccc(-c2cnn(Cc3cc4ccccc4s3)c(=O)c2-c2ccc(F)cc2)cc1
114 to 115	COc1ccc(CCCON2CCC(C(=O)c3nc4ccccc4s3)CC2)cc1
197 to 199	CC=CC(=O)c1oc2c(-c3ccc(F)cc3)c(-c3ccc(S(C)(=O)=O)cc3)nn2c1C
110 to 111	O=C(OCc1ccccc1)N1c2ccc(I)cc2CC1CO (configuration not stated)
63 to 66	CCCCN(C(=O)Nc1ccc(F)cc1F)c1cnc2ccc(Cl)cc2c1-c1ccccc1Cl
134 to 135	CCCCSc1cc(C(=O)OCC#N)cc(S(N)(=O)=O)c1Oc1ccccc1
84 to 88	CC(C)C(C(=O)O)c1ccc(OCCNC(=O)C2Cc3ccccc3N2S(=O)(=O)c2ccc(-c3cc(C(F)(F)F)ccc3Cl)cc2)cc1 (configuration not stated)
206 to 210	O=C(O)Cc1c(C(=O)c2ccccc2)[nH]c2ccc(Cl)c(Cl)c12
215 to 217	O=C(O)[C@@H](CCN1C(=O)c2ccccc2C1=O)Oc1c(Br)cc(-c2c3ccccc3c(Br)c3sc4ccccc4c23)cc1Br
55 to 60	CC(CN1C(=O)C2(COc3cc4c(cc32)CCO4)c2ccccc21)OCc1ccc(F)cc1 (configuration not stated)
238 to 240	O=C(Nc1ccc2cc(CN3CCCC3)ccc2c1)c1ccc(-c2ccc(F)cc2)nc1
122 to 123	CC(=O)SCC(Cc1ccccc1)C(=O)Nc1cccc(C(=O)NCC(=O)OCc2ccccc2)c1 (configuration not stated)
145 to 146	C/C(=C\Cn1oc(=O)[nH]c1=O)c1cccc(OCc2nc(-c3ccc(OC(F)(F)F)cc3)oc2C)c1
127 to 128	COc1nn(Cc2ccc(OCc3nc(-c4ccccc4)oc3C)cc2)cc1CCC(=O)O
